According to patent EP4810052A2, “HCRHR2 SELECTIVE POLYPEPTIDES” (Gubra A/S, priority 2023, dated 2026):
Read-outs that look alike come from different tables or passages of the source. Starred links: 1 amine or outer side, 2 acyl side, 3 side chain; linkers in the order of their positions; H or OH if unused. Non-standard residues stand in square brackets, D forms with d. Residues, ends and D or L forms follow the SMILES beside them. Groups on a side chain read outwards from the residue. *: point of attachment. C20 diacid = O=C(O)CCCCCCCCCCCCCCCCCCC(=O)*; γGlu = O=C(O)[C@H](CCC(=O)[*:2])N[*:1]; NMeI = CC[C@H](C)[C@H](NC)C(=O)O; Nle = CCCC[C@H](N)C(=O)O; AEEA = NCCOCCOCC(=O)O; Aib = CC(C)(N)C(=O)O

Assays:
hCRHR1 = molecular target: T1, hCRHR1 (Homo sapiens, UniProt P34998); assay: cAMP potency, transiently transfected CHO-K1 cells, hCRHR1; type: cell-based; set-up: DYK (FLAG); host or cells: CHO-K1, transiently transfected; settings: transiently transfected CHO-K1, average n=3; read-out: Transient cell system EC50 (nM) hCR HR1
T1 sequence (P34998 24-415): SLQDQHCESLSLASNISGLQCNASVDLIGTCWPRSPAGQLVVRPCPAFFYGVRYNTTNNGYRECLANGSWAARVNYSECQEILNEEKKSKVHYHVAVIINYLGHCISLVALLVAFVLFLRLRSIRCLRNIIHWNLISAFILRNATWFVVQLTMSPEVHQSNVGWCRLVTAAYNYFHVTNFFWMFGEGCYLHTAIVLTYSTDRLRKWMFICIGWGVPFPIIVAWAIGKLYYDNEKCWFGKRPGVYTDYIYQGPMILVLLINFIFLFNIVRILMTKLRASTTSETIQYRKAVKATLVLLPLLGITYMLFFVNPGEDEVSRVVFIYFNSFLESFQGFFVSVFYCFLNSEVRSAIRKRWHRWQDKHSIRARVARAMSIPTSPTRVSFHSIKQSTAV

[1] = Size exclusion chromatography for high molecular weight products (HMWP); type: physicochemical; settings: for HMWP formation (SEC analysis) T14-T0 (%): 14 days; for HMWP formation (SEC analysis) T28-T0 (%): 28 days
Method: Dissolved samples were incubated for at least 2 h at room temperature on a rocking table. The main peak purity at time zero (T0) was determined using reversed phase chromatography. The samples were incubated at 40°C for 14 days (T14) and 28 days (T28). The samples were analyzed with reversed phase chromatography and size exclusion chromatography.
Size exclusion chromatography (SEC) was used as an analysis for the formation of high molecular weight products (HMWP, covalent dimers, trimers etc.,). SEC analyses was performed on Thermo Dionex Ultimate UHPLC system with UV detection at 215 nm) equipped with a SEC column (Waters BEH 125Å, 1.7 µm, 300mm x 4.6). Analysis was performed by isocratic elution using 60% buffer B (0.1% TFA in 5:95 H2O: acetonitrile) in buffer A (0.1% TFA in 95:5 H2O: acetonitrile) at a column temperature of 60° C over 20 min. Flowrate was 0.3 mL/min.
Chromatograms were integrated as HMWP (all peaks eluting before the main peak), main peak (assuming this is monomeric peptide) and if relevant LMWP (low molecular weight products, all peaks eluting after main peak). The amount of HMWP was reported as area relative to total area in percent.

[2] = Dynamic Light Scattering (DLS) of peptide oligomerisation/particle formation; type: physicochemical; settings: average of three replica
Method: Samples were prepared by dissolving 800 nmol of each peptide in 400 µl 50 mM phosphate pH 8.0 to a concentration of 2000 µM (ca 10 mg/ml). After fully dissolution for 2 hours on a rocking table, samples were adjusted to pH 7.5 and filtrated through a 0.2 µm Whatman Anotop filter. Comparators were commercially available liraglutide drug product (Victoza®, Novo Nordisk) pH 8.2, and an aliquot of this drug product adjusted to pH 6.7. These samples were filtrated through a 0.02 µm Whatman Anotop filter.
Samples were pipetted as triplicate of 30 µl to an Aurora 384 well microtiter plate, which was centrifuged for 2 minutes at 2200 rpm and then sealed with a Thermo sealing tape 235307. DLS measurements were done in a Wyatt DynaPro platereader III with the following parameters:
The microtiter plate was incubated in a Grant-bio Thermo Shaker PHMP-4 at 40°C with 700 rpm continuous shaking before subsequent DLS measurements. Data analysis was done using Wyatt Dynamics software ver. 7.10.1.21.
Samples were prepared and measured as described in procedure. The hydrodynamic radii (Rh) and associated polydispersity (PD) resulting from cumulant analysis (assuming one species) are shown in the Table 8 as averages of three replica. T0 indicates the measurement at time zero after sample preparation; T5 indicates the measurements of five days of incubation as described above.

PK in minipigs = settings: male, Göttingen, minipig, in vivo; for half-life: iv, read-out: T½ (converted); for half-life / Cmax / Tmax: Pig; for bioavailability / Cmax / Tmax: sc; for Cmax / Tmax: 6.0 nmol/kg s.c
Method: Pharmacokinetics studies were determined in male Göttingen minipigs from Ellegaard Göttingen Minipigs A/S. Animals were acclimatised for at least 7 days before placed on study. The minipigs had prior to study been surgically implanted with central venous catheters inserted which were used for blood sampling. Animals were housed under a 12/12 h dark-light cycle with ad libitum access to domestic water and animals were fed a commercially standard maintenance diet twice daily.
Test compounds where administrated either as a cassette or as a single compound. Test compounds were administrated by a single intravenous injection or short infusion (5-10 min) through the implanted catheter or a single subcutaneously injection. The subcutaneously injection was given in the mid neck between ear and scapula with a stopper on the needle, allowing 0.5 cm of the needle to be inserted.Plasma concentration-time profiles employing 12-16 sampling points were obtained from each animal. As an example, blood samples were collected on the following times: 0 (predose), 0.17, 0.33, 0.5, 1, 2, 5, 6, 24, 48, 72, 92, 168, 240 and 336 hrs post administration. Approximately 2 mL blood was drawn from the central catheter from each animal at each sampling point. Blood samples were taken in K2 or K3 EDTA tubes. Blood was kept on ice for maximum 30 min before centrifugation (10 min, 4°C, 2000 x g). Approximately 200 µL plasma samples was transferred to a Micronic tube and stored at -20° or lower.
Pharmacokinetics parameters were calculated by non-compartmental analysis (NCA) of the individual plasma concentrations-time profile from the animals. The log-linear trapezoidal method was used for estimation of AUC and AUMC. The terminal T½ was determined as In(2)/λz where λz is the first order rate constant as determined by the terminal log-linear part of the curve.
Plasma concentrations were measured by LC-MSMS using electrospray ionization and multiple reaction monitoring. Calibration standards and quality control (QC) samples were prepared in specie match matrix. 15 µL calibration standards, QC and study samples were extracted by protein precipitation using 60 µL methanol followed by addition of 45 µL milliQ water. Samples were shaken (800 rpm) at room temperature for 5 min before centrifugation (2570×g, 40 min, 4°C) and the supernatant was transferred to a LoBind PCR plate. Samples were analysed on a Thermo Triscend UHPLC system coupled to a Sciex API 6500+ mass spectrometer. Samples were subject to online SPE clean-up on a HLB column (1×50 mm, Waters) before loaded onto a Aeris Peptide XB C18 column (3.6 µm, 100 Å, 2×50 mm, Phenomenex) analytical column. The mobile phases consisted of acetonitrile and milliQ H2O both containing 0.1% V/V formic acid. The flow rate was 0.60 mL/min and the column was kept at room temperature.

[3] = T0, time zero after sample preparation
[4] = T5, five days incubation at 40°C with continuous shaking

Row | SMILES | EC50 (hCRHR1) [nM] | HMWP formation (SEC analysis) T14-T0 (%) ([1]; pH 7.0, 40°C) | HMWP formation (SEC analysis) T28-T0 (%) ([1]; pH 7.0, 40°C) | HMWP formation (SEC analysis) T14-T0 (%) ([1]; pH 7.5, 40°C) | HMWP formation (SEC analysis) T28-T0 (%) ([1]; pH 7.5, 40°C) | HMWP formation (SEC analysis) T14-T0 (%) ([1]; pH 8.0, 40°C) | HMWP formation (SEC analysis) T28-T0 (%) ([1]; pH 8.0, 40°C) | PD (%) [2, 3] [%] | Rh (nm) [2, 3] [nm] | PD (%) [2, 4] [%] | Rh (nm) [2, 4] [nm] | half-life (PK in minipigs; 5.8 nmol/kg i.v.) [h] | bioavailability (PK in minipigs) [%] | Cmax (PK in minipigs) [nM] | Tmax (PK in minipigs) [h] | half-life (PK in minipigs; 4.6 nmol/kg i.v.) [h]
1 | CCCC[C@H](NC(=O)[C@@H](NC(=O)[C@H](CCC(=O)O)NC(=O)[C@H](C)NC(=O)[C@H](CC(N)=O)NC(=O)C(C)(C)NC(=O)[C@H](CCCCNC(=O)COCCOCCNC(=O)COCCOCCNC(=O)CC[C@H](NC(=O)CC[C@H](NC(=O)CCCCCCCCCCCCCCCCCCC(=O)O)C(=O)O)C(=O)O)NC(=O)[C@H](C)NC(=O)[C@H](CCC(N)=O)NC(=O)[C@H](CCC(=O)O)NC(=O)[C@H](CCCNC(=N)N)NC(=O)[C@H](C)NC(=O)[C@H](C)NC(=O)[C@H](CCCNC(=N)N)NC(=O)[C@H](C)NC(=O)[C@H](CCCNC(=N)N)NC(=O)[C@H](C)NC(=O)[C@H](CCC(N)=O)NC(=O)[C@H](CO)NC(=O)[C@H](CC(C)C)NC(=O)[C@H](CC(C)C)NC(=O)[C@@H](NC(=O)[C@H](CCC(N)=O)NC(=O)[C@H](CC(C)C)NC(=O)[C@H](CC(C)C)NC(=O)CNC(=O)[C@@H](NC(=O)[C@@H]1CCCN1C(=O)[C@@H](NC(=O)[C@H](CC(=O)O)NC(=O)[C@H](CC(C)C)NC(=O)[C@H](CO)NC(=O)[C@H](CC(C)C)NC(=O)[C@@H](NC(=O)[C@@H]1CCCN1)C(C)C)C(C)C)[C@@H](C)CC)[C@@H](C)CC)[C@@H](C)CC)C(=O)N[C@@H](C)C(=O)N[C@@H](CCC(=O)O)C(=O)N[C@H](C(N)=O)C(C)C [SEQ ID NO: 238] (H-PVLSLDVPIGLLQILLSQARARAAREQAK([AEEA-AEEA-γGlu-γGlu-C20 diacid])[Aib]NAEI[Nle]AEV-NH2) | > 5000 | 0.3 | 0.5 | 0.4 | 0.4 | -0.1 | 0.2 | 5.3 | 4.8 | 8.1 | 4.8 | 212 | 86 | 44 | 48 | –
2 | CC[C@H](C)[C@H](NC)C(=O)N[C@H](C(=O)N[C@@H](CC(C)C)C(=O)N[C@@H](CO)C(=O)N[C@@H](CC(C)C)C(=O)N[C@@H](CC(=O)O)C(=O)N[C@H](C(=O)N1CCC[C@H]1C(=O)N[C@H](C(=O)NCC(=O)N[C@@H](CC(C)C)C(=O)N[C@@H](CC(C)C)C(=O)N[C@@H](CCC(N)=O)C(=O)N[C@H](C(=O)N[C@@H](CC(C)C)C(=O)N[C@@H](CC(C)C)C(=O)N[C@@H](CCC(=O)O)C(=O)N[C@@H](CCC(N)=O)C(=O)N[C@@H](C)C(=O)N[C@@H](CCCNC(=N)N)C(=O)N[C@@H](C)C(=O)N[C@@H](CCCNC(=N)N)C(=O)N[C@@H](C)C(=O)N[C@@H](C)C(=O)N[C@@H](CCCNC(=N)N)C(=O)N[C@@H](CCC(=O)O)C(=O)N[C@@H](CCC(N)=O)C(=O)N[C@@H](C)C(=O)N[C@@H](CCCCNC(=O)COCCOCCNC(=O)COCCOCCNC(=O)CC[C@H](NC(=O)CC[C@H](NC(=O)CCCCCCCCCCCCCCCCCCC(=O)O)C(=O)O)C(=O)O)C(=O)N[C@H](C(=O)N[C@@H](CC(N)=O)C(=O)NC(C)(C)C(=O)N[C@@H](CCC(=O)O)C(=O)N[C@H](C(=O)N[C@@H](CC(C)C)C(=O)N[C@@H](C)C(=O)N[C@@H](CCC(=O)O)C(=O)N[C@H](C(N)=O)C(C)C)[C@@H](C)CC)[C@@H](C)O)[C@@H](C)CC)[C@@H](C)CC)C(C)C)C(C)C [SEQ ID NO: 16] (H-[NMeI]VLSLDVPIGLLQILLEQARARAAREQAK([AEEA-AEEA-γGlu-γGlu-C20 diacid])TN[Aib]EILAEV-NH2) | > 1000 | -0.3 | -0.3 | 0.0 | 0.0 | -0.2 | -0.3 | 10.5 | 4.7 | 11.6 | 4.7 | – | 66 | 35 | 48 | 208
